51 compounds from ChEMBL document CHEMBL5346927, “Discovery of a novel 1H-pyrazole- [3,4-b] pyridine-based lysine demethylase 5B inhibitor with potential anti-prostate cancer activity that perturbs the phosphoinositide 3-kinase/AKT pathway” (Eur J Med Chem, 2023) can be followed below.

One may read the IC50 as the concentration that gives 50% inhibition. The inhibition is the relative decrease from the control value, in per cent.

Structures are written as SMILES.

For assay [1], the target named is T1, Lysine-specific demethylase 5B (Homo sapiens, UniProt Q9UGL1). In words: Inhibition of KDM5B (unknown origin).
The target of assay [2] is T1, Lysine-specific demethylase 5B. Put plainly: Inhibition of KDM5B (unknown origin) at 10 uM relative to control.
The test system of assay [3] is PC-3. In words: Antitumor activity against human PC-3 cells assessed as inhibition of cell proliferation incubated for 72 hrs by MTT assay. The format is functional, cell-based. The conditions noted are these: PC-3, 72 h. (Formazan colour is commonly taken as a measure of viable cells.)
The subject of assay [4] is MCF7. In words: Antitumor activity against human MCF7 cells assessed as inhibition of cell proliferation incubated for 72 hrs by MTT assay. The format is functional, cell-based. The following applies: MCF7, 72 h.
Assay [5] deals with HepG2. In words: Antitumor activity against human HepG2 cells assessed as inhibition of cell proliferation incubated for 72 hrs by MTT assay. The assay is classed as functional, cell-based. The conditions noted are these: HepG2, 72 h.
Assay [6] deals with MGC-803. In words: Antitumor activity against human MGC-803 cells assessed as inhibition of cell proliferation incubated for 72 hrs by MTT assay. The format is functional, cell-based. The conditions noted are these: MGC-803, 72 h.
The subject of assay [7] is LNCaP. Put plainly: Antiproliferative activity against human LNCaP cells assessed as inhibition of cell proliferation incubated for 72 hrs by MTT assay. The format is functional, cell-based.
The subject of assay [8] is DU-145. Put plainly: Antiproliferative activity against human DU-145 cells assessed as inhibition of cell proliferation incubated for 72 hrs by MTT assay. The assay is classed as functional, cell-based. The conditions noted are these: DU-145, 72 h.

T1 sequence (Q9UGL1 whole entry): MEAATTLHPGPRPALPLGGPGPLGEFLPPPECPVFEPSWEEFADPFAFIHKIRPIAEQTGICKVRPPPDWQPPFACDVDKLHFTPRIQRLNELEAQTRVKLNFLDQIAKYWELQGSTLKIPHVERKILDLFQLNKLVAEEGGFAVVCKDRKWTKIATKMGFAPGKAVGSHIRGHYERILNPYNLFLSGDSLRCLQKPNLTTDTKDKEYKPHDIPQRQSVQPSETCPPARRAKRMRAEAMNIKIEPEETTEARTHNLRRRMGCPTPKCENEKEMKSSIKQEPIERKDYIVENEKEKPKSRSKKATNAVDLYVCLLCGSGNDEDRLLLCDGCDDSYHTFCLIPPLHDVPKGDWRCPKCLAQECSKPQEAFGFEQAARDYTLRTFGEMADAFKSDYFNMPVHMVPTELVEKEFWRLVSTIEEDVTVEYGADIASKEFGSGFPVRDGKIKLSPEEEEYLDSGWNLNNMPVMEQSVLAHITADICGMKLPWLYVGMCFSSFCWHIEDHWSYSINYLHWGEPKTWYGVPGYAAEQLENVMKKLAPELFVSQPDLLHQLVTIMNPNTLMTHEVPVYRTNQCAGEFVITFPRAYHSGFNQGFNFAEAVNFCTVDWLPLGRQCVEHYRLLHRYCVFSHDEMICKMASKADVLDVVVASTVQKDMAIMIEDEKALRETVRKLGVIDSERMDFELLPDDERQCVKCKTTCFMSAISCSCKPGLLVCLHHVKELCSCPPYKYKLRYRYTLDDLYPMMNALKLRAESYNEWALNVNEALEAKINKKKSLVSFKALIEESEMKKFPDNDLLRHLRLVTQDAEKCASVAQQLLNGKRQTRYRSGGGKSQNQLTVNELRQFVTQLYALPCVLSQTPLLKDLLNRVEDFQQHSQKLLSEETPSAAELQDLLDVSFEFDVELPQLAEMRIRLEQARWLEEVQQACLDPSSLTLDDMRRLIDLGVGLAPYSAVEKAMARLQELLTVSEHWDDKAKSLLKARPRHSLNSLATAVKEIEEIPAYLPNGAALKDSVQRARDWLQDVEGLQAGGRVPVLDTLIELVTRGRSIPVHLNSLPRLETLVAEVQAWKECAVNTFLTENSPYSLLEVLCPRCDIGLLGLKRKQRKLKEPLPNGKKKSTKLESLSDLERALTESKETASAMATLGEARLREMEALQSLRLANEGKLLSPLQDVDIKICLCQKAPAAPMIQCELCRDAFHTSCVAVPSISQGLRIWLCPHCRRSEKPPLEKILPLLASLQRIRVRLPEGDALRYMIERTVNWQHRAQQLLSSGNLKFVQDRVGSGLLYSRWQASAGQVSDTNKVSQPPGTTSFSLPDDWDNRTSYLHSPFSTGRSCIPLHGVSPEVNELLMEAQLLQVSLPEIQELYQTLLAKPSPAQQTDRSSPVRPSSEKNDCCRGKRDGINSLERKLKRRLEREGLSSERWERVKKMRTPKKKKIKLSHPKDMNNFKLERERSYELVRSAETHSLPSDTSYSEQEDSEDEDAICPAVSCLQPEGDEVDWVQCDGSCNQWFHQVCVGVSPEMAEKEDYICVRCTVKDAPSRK

In turn, `CN1CCN(CCNC(=O)c2cc(-c3ccccc3)nc3c2cnn3-c2cccc(Cl)c2)CC1` yielded an IC50 in assay [1] of over 10 µM. For the same compound, in assay [2], the inhibition was 6%.
In the same order, the values of `Cc1cccc(-n2ncc3c(C(=O)NCCN4CCN(C)CC4)cc(-c4ccc5ccccc5c4)nc32)c1` are 9.43 µM and 53%.
In the same order, the values of `Cc1ccc(-n2ncc3c(C(=O)NCCN4CCN(C)CC4)cc(-c4ccc5ccccc5c4)nc32)cc1C` are 1.94 µM and 89%.
In the same order, the values of `Cc1ccc(-n2ncc3c(C(=O)NCc4cn(Cc5ccccc5)nn4)cc(-c4ccc5ccccc5c4)nc32)cc1` are 3.93 µM and 72%.
With `Cc1ccc(-n2ncc3c(C(=O)NCc4cn(-c5ccc(F)cc5)nn4)cc(-c4ccc5ccccc5c4)nc32)cc1`, in assay [1], the IC50 is over 10 µM. Further, in assay [2], the inhibition stood at 23%.
The corresponding values for `Cc1ccccc1-n1ncc2c(C(=O)NCCN3CCN(C)CC3)cc(-c3ccc4ccccc4c3)nc21` are 3.34 µM and 86%.
The corresponding values for `Cc1ccc(-n2ncc3c(C(=O)NCc4cn(-c5cccc(Br)c5)nn4)cc(-c4ccc5ccccc5c4)nc32)cc1` are 9.45 µM and 51%.
In the same order, the values of `O=C(NCc1cn(Cc2ccccc2)nn1)c1cc(-c2ccc3ccccc3c2)nc2c1cnn2-c1ccc(C(F)(F)F)cc1` are 6.27 µM and 63%.
Take `Cc1cccc(-n2ncc3c(C(=O)NCCN4CCN(C)CC4)cc(-c4ccccc4)nc32)c1`: the IC50 in assay [1] is over 10 µM. For the same compound, in assay [2], the inhibition turned out to be 14%.
The corresponding values for `Cc1ccc(-n2ncc3c(C(=O)NCc4ccccc4)cc(-c4ccc5ccccc5c4)nc32)cc1` are over 10 µM and 27%.
In the same order, the values of `CC(C)n1ncc2c(C(=O)NCc3cn(Cc4ccccc4)nn3)cc(-c3ccc4ccccc4c3)nc21` are 7.7 µM and 57%.
Take `Cc1ccc(-n2ncc3c(C(=O)NCCN4CCCCC4)cc(-c4ccc5ccccc5c4)nc32)cc1`: the IC50 in assay [1] is over 10 µM. The inhibition in assay [2] came to 40%.
`Cc1ccc(-n2ncc3c(C(=O)NCCN(C)C)cc(-c4ccc5ccccc5c4)nc32)cc1`: inhibition in assay [1] was half-maximal at 5.42 µM (IC50). For the same compound, the inhibition in assay [2] came to 64%.
In turn, `Cc1ccc(-n2ncc3c(C(=O)NC4CCCC4)cc(-c4ccc5ccccc5c4)nc32)cc1` displayed an IC50 in assay [1] of over 10 µM. Further, in assay [2], the inhibition came out at 5%.
On to `Cc1ccc(-n2ncc3c(C(=O)NCCN4CCN(C)CC4)cc(-c4ccccc4)nc32)cc1C`, for which, in assay [1], the IC50 amounted to 3.69 µM. The inhibition in assay [2] is 79%.
On to `COc1ccc(-c2cc(C(=O)NCCN3CCN(C)CC3)c3cnn(-c4ccccc4)c3n2)cc1`, for which half-maximal inhibition in assay [1] (IC50) required 0.237 µM. Besides, the inhibition in assay [2] was 88%.
Consider `Cc1ccc(-n2ncc3c(C(=O)Nc4ccccc4)cc(-c4ccc5ccccc5c4)nc32)cc1`, for which the IC50 in assay [1] was over 10 µM. Further, the inhibition in assay [2] was -1%.
`Cc1ccc(-c2cc(C(=O)NCCN3CCN(C)CC3)c3cnn(-c4ccccc4)c3n2)cc1`: in assay [1], the IC50 was 0.658 µM. Besides, the inhibition in assay [2] amounted to 79%.
For the compound `CC(C)c1ccc(-n2ncc3c(C(=O)NCCN4CCN(C)CC4)cc(-c4ccccc4)nc32)cc1`, the IC50 in assay [1] was 3.99 µM. The inhibition in assay [2] worked out at 83%.
In the same order, the values of `Cc1ccc(-n2ncc3c(C(=O)NCCN4CCN(C)CC4)cc(-c4ccc5ccccc5c4)nc32)cc1` are 1.35 µM and 79%.
In the same order, the values of `CN1CCN(CCNC(=O)c2cc(-c3ccccc3)nc3c2cnn3-c2ccccc2)CC1` are 0.749 µM and 93%.
`C#CNC(=O)c1cc(-c2ccc3ccccc3c2)nc2c1cnn2-c1ccc(C)cc1` gave a 50% inhibitory concentration (IC50) in assay [1] of over 10 µM. For the same compound, in assay [2], the inhibition is 28%.
With `Cc1cccc(-c2cc(C(=O)NCCN3CCN(C)CC3)c3cnn(-c4ccccc4)c3n2)c1`, the IC50 in assay [1] was 2.81 µM. Moreover, the inhibition in assay [2] was 67%.
In assay [1], `CN1CCN(CCNC(=O)c2cc(-c3ccccc3)nc3c2cnn3-c2ccc(Br)cc2)CC1` registered an IC50 of over 10 µM. Besides, the inhibition in assay [2] stood at 44%.
On to `Cc1ccc(-n2ncc3c(C(=O)NCc4cn(Cc5ccc(C(F)(F)F)cc5)nn4)cc(-c4ccc5ccccc5c4)nc32)cc1`, for which the IC50 in assay [1] was found to be 6.97 µM. Moreover, the inhibition in assay [2] amounted to 58%.
In the same order, the values of `Cc1ccc(-n2ncc3c(C(=O)NCCN4CCCC4)cc(-c4ccc5ccccc5c4)nc32)cc1` are 7.35 µM and 58%.
Compound `Cc1ccc(-n2ncc3c(C(=O)NCCN4CCN(C)CC4)cc(-c4ccccc4)nc32)cc1` came in with an IC50 in assay [1] of 1.67 µM. Moreover, in assay [2], the inhibition was determined as 95%.
In turn, `CCc1ccc(-c2cc(C(=O)NCCN3CCN(C)CC3)c3cnn(-c4ccccc4)c3n2)cc1` displayed an IC50 in assay [1] of 0.376 µM. Further, the inhibition in assay [2] came to 83%.
As to `Cc1ccc(-n2ncc3c(C(=O)NCc4cn(-c5ccc(C)cc5C)nn4)cc(-c4ccc5ccccc5c4)nc32)cc1`, the IC50 in assay [1] was over 10 µM. Moreover, the inhibition in assay [2] turned out to be 17%.
Consider `CN1CCN(CCNC(=O)c2cc(-c3ccccc3)nc3c2cnn3-c2ccc(Cl)cc2)CC1`, for which the IC50 in assay [1] was over 10 µM. Further, the inhibition in assay [2] was determined as 40%.
Take `Cc1ccc(-n2ncc3c(C(=O)NCc4cn(-c5ccccc5)nn4)cc(-c4ccc5ccccc5c4)nc32)cc1`: the IC50 in assay [1] was determined as 2.17 µM. Besides, the inhibition in assay [2] was 74%.
In turn, `CN1CCN(CCNC(=O)c2cc(-c3ccc(Br)cc3)nc3c2cnn3-c2ccccc2)CC1` had an IC50 in assay [1] of over 10 µM. Moreover, in assay [2], the inhibition came out at 31%.
For the compound `Cc1cc(C)cc(-c2cc(C(=O)NCCN3CCN(C)CC3)c3cnn(-c4ccc5ccccc5c4)c3n2)c1`, the IC50 in assay [1] was over 10 µM. Besides, in assay [2], the inhibition was 35%.
In the same order, the values of `CN1CCN(CCNC(=O)c2cc(-c3ccccc3)nc3c2cnn3-c2ccccc2Cl)CC1` are over 10 µM and 21%.
For the compound `Cc1ccc(-n2ncc3c(C(=O)NCc4cn(-c5ccc(C)c(C)c5)nn4)cc(-c4ccc5ccccc5c4)nc32)cc1`, in assay [1], 9.37 µM corresponded to half-maximal inhibition (IC50). The inhibition in assay [2] came to 51%.
In turn, `Cc1ccccc1-n1ncc2c(C(=O)NCCN3CCN(C)CC3)cc(-c3ccccc3)nc21` yielded an IC50 in assay [1] of 4.17 µM. In assay [2], the inhibition came out at 83%.
For the compound `O=C(O)CCNc1cc(N2CCc3ccccc3CC2)nc(-c2ccccn2)n1`, the IC50 came out at 20.3 µM in assay [3], 33.7 µM in assay [4], 39.8 µM in assay [5] and 29.3 µM in assay [6].
Compound `CN1CCN(CCNC(=O)c2cc(-c3ccc(Cl)cc3)nc3c2cnn3-c2ccccc2)CC1` gave an IC50 in assay [1] of over 10 µM. Further, the inhibition in assay [2] was determined as 43%.
Compound `CC(C)c1ccc(-c2cc(C(=O)NCCN3CCN(C)CC3)c3cnn(-c4ccccc4)c3n2)cc1` yielded an IC50 in assay [1] of 0.132 µM. Moreover, the inhibition in assay [2] worked out at 87%.
`Cc1ccccc1-c1cc(C(=O)NCCN2CCN(C)CC2)c2cnn(-c3ccccc3)c2n1` yielded an IC50 in assay [1] of 6.15 µM. Also, in assay [2], the inhibition came to 60%.
Regarding `O=c1[nH]cc(F)c(=O)[nH]1` [FLUOROURACIL], the concentration for half-maximal inhibition (IC50) in assay [3] was 8.41 µM; in assay [4], 15.1 µM; in assay [6], 10.1 µM; in assay [7], 7.93 µM; in assay [8], 8.58 µM.
On to `Cc1cc(C)cc(-n2ncc3c(C(=O)NCCN4CCN(C)CC4)cc(-c4ccccc4)nc32)c1`, for which the IC50 in assay [1] is over 10 µM. Also, the inhibition in assay [2] was determined as 20%.
For the compound `O=C(O)CNC(=O)C(=O)O` [N-OXALYLGLYCINE], the midpoint of inhibition in assay [1], the IC50, lay at 920 µM.
`CN1CCN(CCNC(=O)c2cc(-c3ccc4ccccc4c3)nc3c2cnn3-c2ccc(C(F)(F)F)cc2)CC1` had a half-maximal inhibitory concentration (IC50) in assay [1] of over 10 µM. In addition, the inhibition in assay [2] stood at 33%.
The compound `Cc1ccc(-n2ncc3c(C(=O)Nc4cccnc4)cc(-c4ccc5ccccc5c4)nc32)cc1` registered an IC50 in assay [1] of over 10 µM. Moreover, the inhibition in assay [2] is -3%.
In the same order, the values of `CN1CCN(CCNC(=O)c2cc(-c3ccccc3)nc3c2cnn3-c2ccc(C(F)(F)F)cc2)CC1` are over 10 µM and 20%.
In assay [1], `Cc1ccc(-n2ncc3c(C(=O)NCc4cn(-c5cccc(F)c5)nn4)cc(-c4ccc5ccccc5c4)nc32)cc1` gave an IC50 of 5.26 µM. The inhibition in assay [2] stood at 71%.
The corresponding values for `CN1CCN(CCNC(=O)c2cc(-c3ccc4ccccc4c3)nc3c2cnn3-c2ccc(Br)cc2)CC1` are over 10 µM and 46%.
In assay [1], `Cc1ccc(-n2ncc3c(C(=O)NCc4cn(-c5ccc(I)cc5)nn4)cc(-c4ccc5ccccc5c4)nc32)cc1` registered an IC50 of 6.58 µM. For the same compound, in assay [2], the inhibition came to 58%.
In the same order, the values of `Cc1ccc(-n2ncc3c(C(=O)NCc4cn(Cc5ccc(C#N)cc5)nn4)cc(-c4ccc5ccccc5c4)nc32)cc1` are 6.38 µM and 63%.
As for `CC(C)c1ccc(-n2ncc3c(C(=O)NCCN4CCN(C)CC4)cc(-c4ccc5ccccc5c4)nc32)cc1`, the IC50 in assay [1] came to 3.08 µM. In assay [2], the inhibition was 86%.
